We go through one molecule from US10538496B2, “Methods using HDAC11 inhibitors” (FORMA Therapeutics, Inc., priority 2016, dated 2020).

One experiment relates to HEL 92.1.7 cells. The experiment can be described thus: Cell proliferation assay (CCK8). The format is cell-based. Particulars: 48h. The procedure:
(§1) This example describes inhibition of in vitro cell proliferation with exemplary HDAC11 inhibitors. The effects of selective HDAC11 inhibitors on cell proliferation were measured in cell lines containing the MPN-associated mutations MPL W515L (Ba/F3 MPL W515L) and JAK2 V617F (Ba/F3 JAK2 V617F, HEL 92.1.7, SET-2). HEL 92.1.7 and SET-2 cells were purchased from the ATCC and DSMZ, respectively. Ba/F3 cells overexpressing either MPLW515L or JAK2V617F, which were cytokine independent, were generated by transforming Ba/F3 cells with retroviruses overexpressing either MPL W515L or JAK2V617F. For survival assays, cells were seeded in 96-well plates at the density of 0.1 million/ml with addition of indicated compounds and incubated at 37° C. for 48h. CCK8 solution (Dojindo, Rockville, Md.) was added and absorbance at 450 nm was measured after 3 hours of incubation. Readings were normalized to dimethylsulfoxide (DMSO)-treated wells.

Another experiment deals with SET-2 cells. The experiment can be described thus: Cell proliferation assay (CCK8). The format is cell-based. Particulars: FIG. 4 legend. The protocol: as §1

Consider `N#CC[C@H](C1CCCC1)n1cc(-c2ncnc3[nH]ccc23)cn1` [ruxolitinib, reference compound], for which, in the experiment on HEL 92.1.7 cells, the “growth of the HEL 92.1.7 cell line” value is “inhibited”. Further, the “growth of SET-2 cell line” value with SET-2 cells was “inhibited”.
